This experiment concerns tumeur M₄. The experiment in a line: Inhibition of development of lung metastases (M4 tumour cells injected i.v. with peptide). The settings on record: injected in tail vein with 10⁵ M₄ cells, lung colonies counted after 15 days, PBS control 117,5 ± 14,4. Format: in vivo, souris C57BL/6. How it is done:
On a utilisé la tumeur M₄, une sous-lignée obtenue par sélection d'un sarcome induit par le benzopyrène chez la souris C57BL/6 (Mantovani Int. J. Cancer, 22, 741, 1978).
Les cellules M₄ ont été désagrégées avec de la DNAse et de la collagènase pendant 30 minutes à 37°C. On a lavé les cellules deux fois avec du PBS et on les a remis en suspension dans le même tampon à la concentration de […]. On a injecté lentement dans le veine de la queue de souris C57BL/6 0,2 ml de PBS contenant différentes concentrations de peptide et 10⁵ cellules M₄/souris.
Au bout de 15 jours on a tué les souris et excisé les poumons, et on les a fixés avec une solution de Bouin. On a compté visuellement les colonies. Les résultats obtenus avec le peptide KQRGDF sont donnés dans le tableau suivant.

Experimental findings from patent EP0298820A1, “Peptide derivatives and their therapeutic application” (INSTITUT NATIONAL DE LA SANTE ET DE LA RECHERCHE MEDICALE …, priority 1987, dated 1989) are described below.

“H-KQRGDF-OH [KQRGDF, H-Lys-Gln-Arg-Gly-Asp-Phe-OH]”: the Nombre de colonie by setting is: (0,75 mg/souris) 25,3 ± 9,4; (1,5 mg/souris) 0,2; (3,0 mg/souris) 0.
